Test results from ChEMBL document CHEMBL1123567, “2-Oxo-1,8-naphthyridine-3-carboxylic acid derivatives with potent gastric antisecretory properties” (1987).

Columns and labels:
Rattus norvegicus [1] = assay: Antisecretory activity at 32 mg/kg dose administered intraduodenally in the pylorus-ligated rat; assay type: functional; settings: route intraduodenal
Rattus norvegicus [2] = assay: Antisecretory activity (total acid output) at 16 mg/kg dose administered intraduodenally in the pylorus-ligated rat; assay type: functional; settings: route intraduodenal
Canis familiaris [3] = assay: Antisecretory activity (total acid output) at 4 mg/kg dose administered (po) in Gastric pouch dog was determined by dose related inhibition of food stimulated gastric acid secretion; assay type: functional, Canis lupus familiaris, Stomach; parameters: scale not given: the % may be the effect or the level left
Canis familiaris [4] = assay: Antisecretory activity (total acid output) at 2 mg/kg dose administered (po) in Gastric pouch dog was determined by dose related inhibition of food stimulated gastric acid secretion; assay type: functional, Canis lupus familiaris, Stomach; parameters: scale not given: the % may be the effect or the level left
Rattus norvegicus [5] = assay: Antisecretory activity (total acid output) at 4 mg/kg dose administered intraduodenally in the pylorus-ligated rat; assay type: functional; settings: route intraduodenal
Rattus norvegicus [6] = assay: Antisecretory activity (total acid output) at 8 mg/kg dose administered intraduodenally in the pylorus-ligated rat; assay type: functional; settings: route intraduodenal
Rattus norvegicus [7] = assay: Antisecretory activity (total acid output) at 2 mg/kg dose administered intraduodenally in the pylorus-ligated rat; assay type: functional; settings: route intraduodenal
Canis familiaris [8] = assay: Antisecretory activity (total acid output) at 8 mg/kg dose administered (po) in Gastric pouch dog was determined by dose related inhibition of food stimulated gastric acid secretion; assay type: functional, Canis lupus familiaris, Stomach; parameters: scale not given: the % may be the effect or the level left
Canis familiaris [9] = assay: Antisecretory activity (total acid output) at 16 mg/kg dose administered (po) in Gastric pouch dog was determined by dose related inhibition of food stimulated gastric acid secretion; assay type: functional, Canis lupus familiaris, Stomach; parameters: scale not given: the % may be the effect or the level left
Rattus norvegicus [10] = assay: Antisecretory activity (total acid output) at 0.5 mg/kg dose administered intraduodenally in the pylorus-ligated rat; assay type: functional; settings: route intraduodenal

SMILES | Control (Rattus norvegicus [1]) | also measured
CCn1c(=O)c(C(=O)NN)c(N)c2cccnc21 | 29% | 
CCn1c(=O)c(C(N)=O)c(N)c2ccc(C)nc21 | 55% | 
CCn1c(=O)c(C(=O)O)c(N)c2cc(NC(C)=O)cnc21 | 82% | 
CCCn1c(=O)c(C(=O)OCC)c(N)c2cccnc21 | 30% | 
CCOC(=O)c1c(Cl)c2ccc(C)nc2n(CC)c1=O | 66% | 
CCOC(=O)c1c(O)c2cccnc2n(CC)c1=O | 63% | 
CCOC(=O)c1c(N2CCCC2)c2cccnc2n(C)c1=O | 51% | 
CCOC(=O)c1c(N)c2cccnc2n(CC(C)C)c1=O | 28% | 
CCn1c(=O)c(C(=O)O)c(N)c2cccnc21 | 37% | 
CCn1c(=O)c(C(N)=O)c(N)c2cccnc21 | 19% | 
CCOC(=O)c1c(N)c2cccnc2n(C2CCCCC2)c1=O | 48% | 
CCOC(=O)c1c(N2CCNCC2)c2ccc(C)nc2n(CC)c1=O | 10% | 
C=CCn1c(=O)c(C(=O)O)c(NC(=O)CCl)c2cccnc21 | 63% | 
CCOC(=O)c1c(N2CCN(C)CC2)c2ccc(C)nc2n(CC)c1=O | 7.5% | Control (Rattus norvegicus [2]): 28%; Control (Canis familiaris [3]): 40%; Control (Canis familiaris [4]): 95%; Control (Rattus norvegicus [5]): 66%; Control (Rattus norvegicus [6]): 45%; Control (Rattus norvegicus [7]): 85%
CCOC(=O)c1c(O)nc2nc(C)ccc2c1N1CCN(C)CC1 | 34% | 
CCOC(=O)c1c(NCCCN(C)C)c2ccc(C)nc2n(CC)c1=O | 77% | 
CCNc1c(C(=O)OCC)c(=O)n(CC)c2nc(C)ccc12 | 36% | 
CCn1c(=O)c(C#N)c(N)c2ccc(C)nc21 | 62% | 
CCOC(=O)c1c(N)c2ccc(C)nc2n(CCO)c1=O | 74% | 

SMILES | Control (Rattus norvegicus [1]) | also measured
CCOC(=O)c1c(N(C(C)=O)C(C)=O)c2cccnc2n(CC)c1=O | 59% | 
CCN(CC)CCNC(=O)c1c(N)c2cccnc2n(CC)c1=O | 56% | 
CCOC(=O)c1c(N2CCCC2)c2ccc(C)nc2n(CC)c1=O | 29% | 
CCOC(=O)c1c(N(C)CCO)c2ccc(C)nc2n(CC)c1=O | 59% | 
CCn1c(=O)c(C(=O)O)c(N2CCN(C)CC2)c2ccc(C)nc21 | 89% | 
CCC(C)OC(=O)c1c(N)c2cccnc2n(CC)c1=O (stereo unspecified) | 42% | 
CCN(CC)CCOC(=O)c1c(N)c2cccnc2n(CC)c1=O | 40% | 
CCOC(=O)c1c(NC(C)=O)c2cccnc2n(CC)c1=O | 67% | 
CCOC(=O)c1c(N2CCN(C(=O)OCC)CC2)c2ccc(C)nc2n(CC)c1=O | 70% | 
CCOC(=O)c1c(N2CCOCC2)c2ccc(C)nc2n(CC)c1=O | 22% | 
CCn1c(=O)c(C#N)c(N2CCCC2)c2ccc(C)nc21 | 67% | 
CCOC(=O)c1c(O)c2ccc(C)nc2n(C)c1=O | 51% | 
CCOC(=O)c1c(N)c2cccnc2n(C)c1=O | 21% | 
CCOC(=O)c1c(O)nc2ncccc2c1N | 44% | 
C=CCn1c(=O)c(C(=O)OCC)c(N2CCCC2)c2ccc(C)nc21 | 59% | 
Nc1c(C(=O)O)c(O)nc2ncccc12 | 72% | 
CCOC(=O)c1c(N(C(C)=O)C(C)=O)c2c(C)cc(C)nc2n(CC)c1=O | 76% | 
CCOC(=O)c1c(N2CCN(C)CC2)c2cccnc2n(CC)c1=O | 17% | 
CCOC(=O)c1c(N)c2c(C)cc(C)nc2n(CC)c1=O | 50% | 

SMILES | Control (Rattus norvegicus [1]) | also measured
CCOC(=O)c1c(OCC)c2ccc(C)nc2n(CC)c1=O | 46% | 
CCOC(=O)c1c(O)nc2nc(C)cc(C)c2c1N | 89% | 
C=CCn1c(=O)c(C(=O)OCC)c(N)c2cccnc21 | 22% | 
CCOC(=O)c1c(N2CCN(C)CC2)c2ccc(C)nc2n(C)c1=O | 9% | 
CCOC(=O)C(=O)Nc1c(C(=O)OCC)c(=O)n(CC)c2ncccc12 | 28% | 
CCOC(=O)c1c(N)c2cccnc2n(CC)c1=O | 18% | Control (Canis familiaris [8]): 97%; Control (Rattus norvegicus [2]): 17%; Control (Canis familiaris [3]): 92%; Control (Canis familiaris [9]): 62%; Control (Rattus norvegicus [5]): 55%; Control (Rattus norvegicus [10]): 100%; Control (Rattus norvegicus [6]): 35%; Control (Rattus norvegicus [7]): 58%
C=CCn1c(=O)c(C(=O)OCC)c(O)c2ccc(C)nc21 | 73% | 
CCNC(=O)c1c(N)c2cccnc2n(CC)c1=O | 28% | 
CCNc1cc(C)c2c(N)c(C(=O)OCC)c(=O)n(CC)c2n1 | 58% | 
CCOC(=O)c1c(N2CCCC2)c2ccc(C)nc2n(C)c1=O | 32% | 
CCOC(=O)c1c(O)c2ccc(C)nc2n(CC)c1=O | 53% | 
CCCCOC(=O)c1c(N)c2cccnc2n(CC)c1=O | 26% | 
CCOC(=O)c1c(NC(=O)C(F)(F)F)c2cccnc2n(CC)c1=O | 22% | 
CCOC(=O)c1c(N2CC[N+](C)(C)CC2)c2ccc(C)nc2n(CC)c1=O.[Cl-] | 123% | 
CCOC(=O)c1c(N2CCN(C)CC2)c2cccnc2n(C)c1=O | 25% | 
CCOC(=O)c1c(N(CC)CC)c2ccc(C)nc2n(CC)c1=O | 55% | 
CCOC(=O)c1c(N)c2ccc(C)nc2n(CC)c1=O | 33% | 
CCOC(=O)c1c(NCC(O)c2ccccc2)c2ccc(C)nc2n(CC)c1=O (stereo unspecified) | 111% | 
CN/C(=N\CCSCc1nc[nH]c1C)NC#N [CIMETIDINE] |  | Inhibition of gastric acid secretion (% relative to control) (Rattus norvegicus [1]): 80%
